From US20120142771A1, “BIPHENYLACETAMIDE DERIVATIVE” (Dainippon Sumitomo Pharma Co., Ltd., priority 2008, published 2012)
Read-outs that look alike come from different tables or passages of the source.

Legend:
[1] = system: maximum electroshock seizure (MES) model; assay: Maximum electroshock seizure (MES) model test; assay type: in vivo, mice; conditions: for responders at 50 mg/kg / responders at 100 mg/kg: Mus musculus, po, 1 h
Excerpt: In order to evaluate the antiepileptic activity of each drug, maximum electroshock seizure (MES) model, subcutaneously pentetrazol-injected model (scPTZ), and amygdala kindling model in rats were used because they show a good clinical prediction.
Test 1: Test with Maximum Electroshock Seizure (MES) Model
Test 1 evaluates the anticonvulsant action of medicaments. Animal model used herein represents the clinical phenotypes of generalized tonic seizure and secondarily generalized tonic-clonic seizure. Test compounds (50 or 100 mg/kg) were orally administered to Slc: ddY male mice (3 mice in each group, body weight 20-30 g). After an hour of administration, their corneas were electrically stimulated (60 Hz, 25 mA, 0.2 second) to induce tonic convulsion (tonic extensor in their hind limbs). […] To the control mice, 0.5% tragacanth solution or 0.5% methylcellulose solution was administered.

[2] = system: subcutaneously pentetrazol-injected model (scPTZ); assay: Subcutaneously pentetrazol-injected model (scPTZ) test; assay type: in vivo, mice; conditions: for responders at 100 mg/kg / responders at 50 mg/kg: Mus musculus, po, 1 h
Excerpt: In order to evaluate the antiepileptic activity of each drug, maximum electroshock seizure (MES) model, subcutaneously pentetrazol-injected model (scPTZ), and amygdala kindling model in rats were used because they show a good clinical prediction. […] Test with Subcutaneously Pentetrazol-Injected Model (scPTZ) Similar to Test 1, Test 2 evaluates the anticonvulsant action of medicaments. However, unlike Test 1, animal model used herein represents the clinical phenotypes of generalized absence seizure and myoclonic seizure. Test compounds (50 or 100 mg/kg) were orally administered to Slc: ddY male mice (3 mice in each group, body weight 20-30 g). After an hour, pentetrazol (85 mg/kg) was subcutaneously administered. […] To the control mice, 0.5% tragacanth solution or 0.5% methylcellulose solution was administered.

[3] = 50 mg/kg oral, Slc: ddY male mice, 3 per group, electrical stimulation 1 hour after administration, inhibition of hind limb extension, read-out: MES (positive number/tested number) (converted)
[4] = 100 mg/kg oral, Slc: ddY male mice, 3 per group, electrical stimulation 1 hour after administration, inhibition of hind limb extension, read-out: MES (positive number/tested number) (converted)
[5] = 100 mg/kg oral, Slc: ddY male mice, 3 per group, pentetrazol 85 mg/kg s.c. after 1 hour, observed 30 minutes for clonic convulsion, read-out: scPTZ (positive number/tested number) (converted)
[6] = 50 mg/kg oral, Slc: ddY male mice, 3 per group, pentetrazol 85 mg/kg s.c. after 1 hour, observed 30 minutes for clonic convulsion, read-out: scPTZ (positive number/tested number) (converted)

| Compound | responders at 50 mg/kg [1, 3] [%] | responders at 100 mg/kg [1, 4] [%] | responders at 100 mg/kg [2, 5] [%] | responders at 50 mg/kg [2, 6] [%] | further results |
| --- | --- | --- | --- | --- | --- |
| NC(=O)Cc1ccc([N+](=O)[O-])cc1-c1ccccc1F [Example 113, 2-(2′-fluoro-5-nitrobiphenyl-2-yl)acetamide] | 66.7 | 100 | 33.3 | – | – |
| NC(=O)C(O)c1ccccc1-c1ccc(F)cc1 (stereo not drawn) [Example 179] | 33.3 | 100 | 33.3 | – | – |
| NC(=O)Cc1ccc(C(F)(F)F)cc1-c1cccc(F)c1 [Example 149, 2-[3′-fluoro-5-(trifluoromethyl)biphenyl-2-yl]acetamide] | 33.3 | 66.7 | 66.7 | 0 | – |
| NC(=O)Cc1cc(F)ccc1-c1ccccc1 [Example 44, 2-(4-fluorobiphenyl-2-yl)acetamide] | 100 | 100 | 0 | – | – |
| NC(=O)Cc1ccccc1-c1ccc(Cl)cc1F [Example 68, 2-(4′-chloro-2′-fluorobiphenyl-2-yl)acetamide] | 0 | 100 | 66.7 | 0 | – |
| NC(=O)C(O)c1ccccc1-c1cccc(Cl)c1 (stereo not drawn) [Example 180] | 33.3 | 100 | 33.3 | – | – |
| NC(=O)Cc1ccccc1-c1ccc(Cl)c(C(F)(F)F)c1 [Example 75, 2-[4′-chloro-3′-(trifluoromethyl)biphenyl-2-yl]acetamide] | 0 | 100 | 66.7 | 33.3 | – |
| CNC(=O)C(F)c1ccccc1-c1cccc(F)c1 (stereo not drawn) [Example 161] | – | 66.7 | 0 | – | – |
| CNC(=O)C(C)c1ccccc1-c1ccccc1F (stereo not drawn) [Example 58, 2-(2′-fluorobiphenyl-2-yl)-N-methyl propanamide] | 0 | 66.7 | 66.7 | 0 | – |
| NC(=O)Cc1ccccc1-c1ccc(OC(F)(F)F)c(F)c1 [Example 70, 2-[3′-fluoro-4′-(trifluoromethoxy)biphenyl-2-yl]acetamide] | 33.3 | 100 | 66.7 | 66.7 | – |
| CNC(=O)C1(c2ccccc2-c2ccccc2)CC1 [Example 156] | 0 | 100 | 33.3 | – | – |
| N#Cc1ccc(-c2ccccc2CC(N)=O)c(F)c1 [Example 106] | – | 0 | 66.7 | – | – |
| NC(=O)C(F)c1ccccc1-c1cccc(Cl)c1 (stereo not drawn) [Example 167, 2-(3′-chlorobiphenyl-2-yl)-2-fluoroacetamide] | – | – | – | – | responders at 50 mg/kg ([1]; read-out: MES (positive number/tested number), 50 mg/kg oral, Slc: ddY male mice, 3 per group, electrical stimulation 1 hour after administration, inhibition of hind limb extension): 33.3%; responders at 100 mg/kg ([1]; read-out: MES (positive number/tested number), 100 mg/kg oral, Slc: ddY male mice, 3 per group, electrical stimulation 1 hour after administration, inhibition of hind limb extension): 100%; responders at 50 mg/kg ([2]; read-out: scPTZ (positive number/tested number), 50 mg/kg oral, Slc: ddY male mice, 3 per group, pentetrazol 85 mg/kg s.c. after 1 hour, observed 30 minutes for clonic convulsion): 66.7%; responders at 100 mg/kg ([2]; read-out: scPTZ (positive number/tested number), 100 mg/kg oral, Slc: ddY male mice, 3 per group, pentetrazol 85 mg/kg s.c. after 1 hour, observed 30 minutes for clonic convulsion): 100% |
| NC(=O)Cc1ccccc1-c1cc(C(F)(F)F)cc(C(F)(F)F)c1 [Example 72] | – | 66.7 | 0 | – | – |
| NC(=O)Cc1ccccc1-c1cc(Cl)ccc1F [Example 87, 2-(5′-chloro-2′-fluorobiphenyl-2-yl)acetamide] | 33.3 | 100 | 66.7 | 0 | – |
| NC(=O)Cc1ccccc1-c1ccc(F)c(Cl)c1 [Example 65] | – | 66.7 | 33.3 | – | – |
| CNC(=O)Cc1cc(Cl)ccc1-c1ccccc1 [Example 36] | 0 | 100 | 33.3 | – | – |
| CNC(=O)Cc1ccccc1-c1ccc(OC(F)(F)F)cc1 [Example 103] | – | 100 | 33.3 | – | – |

| Compound | responders at 50 mg/kg [1, 3] [%] | responders at 100 mg/kg [1, 4] [%] | responders at 100 mg/kg [2, 5] [%] | responders at 50 mg/kg [2, 6] [%] | further results |
| --- | --- | --- | --- | --- | --- |
| CNC(=O)Cc1c(F)cccc1-c1cccc(F)c1 [Example 141] | – | 66.7 | 0 | – | – |
| NC(=O)Cc1ccccc1-c1cccc(OC(F)(F)F)c1 [Example 79, 2-[3′-(trifluoromethoxy)biphenyl-2-yl]acetamide] | 33.3 | 100 | 100 | 33.3 | – |
| NC(=O)C(O)c1ccc(F)cc1-c1cccc(F)c1 (stereo not drawn) [Example 182, 2-(3′,5-difluorobiphenyl-2-yl)-2-hydroxyacetamide] | 33.3 | 100 | 100 | 0 | – |
| CC(C(N)=O)c1ccccc1-c1cccc(Cl)c1 (stereo not drawn) [Example 177] | – | 0 | 33.3 | – | – |
| COC(C(N)=O)c1ccccc1-c1ccc(F)cc1 (stereo not drawn) [Example 203, 2-(4′-fluorobiphenyl-2-yl)-2-methoxyacetamide] | 33.3 | 66.7 | 100 | 66.7 | – |
| CC(C(N)=O)c1ccccc1-c1cccc(F)c1 (stereo not drawn) [Example 175, 2-(3′-fluorobiphenyl-2-yl)propanamide] | 0 | 66.7 | 100 | 0 | – |
| NC(=O)C(O)c1ccccc1-c1cc(F)cc(Cl)c1 (single isomer, unassigned) [Example 217, 2-(3′-Chloro-5′-fluorobiphenyl-2-yl)-2-hydroxyacetamide] | – | – | – | – | MES (positive number/tested number) ([1]; 50 mg/kg oral, Slc: ddY male mice, 3 per group, electrical stimulation 1 hour after administration, inhibition of hind limb extension): 2/3; scPTZ (positive number/tested number) ([2]; 50 mg/kg oral, Slc: ddY male mice, 3 per group, pentetrazol 85 mg/kg s.c. after 1 hour, observed 30 minutes for clonic convulsion): 1/3; scPTZ (positive number/tested number) ([2]; 100 mg/kg oral, Slc: ddY male mice, 3 per group, pentetrazol 85 mg/kg s.c. after 1 hour, observed 30 minutes for clonic convulsion): 3/3 |
| NC(=O)Cc1c(F)cccc1-c1cccc(F)c1 [Example 140, 2-(3,3′-difluorobiphenyl-2-yl)acetamide] | 100 | 100 | 66.7 | 66.7 | anticonvulsant action in maximum electroshock seizure (MES) model test ([1]; mice, oral 50 or 100 mg/kg, 1 hour after administration): anticonvulsant action was observed; anticonvulsant action in subcutaneously pentetrazol-injected model (scPTZ) test ([2]; mice, oral 50 or 100 mg/kg, pentetrazol 85 mg/kg s.c. after 1 hour): anticonvulsant action was observed |
| CNC(=O)C(F)(F)c1ccccc1-c1ccccc1 [Example 168] | 33.3 | 100 | 33.3 | – | – |
| NC(=O)Cc1ccccc1-c1ccc(OC(F)(F)F)cc1 [Example 76, 2-[4′-(trifluoromethoxy)biphenyl-2-yl]acetamide] | 0 | 100 | 66.7 | 33.3 | – |
| NC(=O)C(O)c1ccccc1-c1ccccc1Cl (single isomer, unassigned) [Example 220, 2-(2′-chlorobiphenyl-2-yl)-2-hydroxyacetamide] | 100 | 100 | 100 | 33.3 | – |
| CC(C(N)=O)c1ccccc1-c1ccccc1 (stereo not drawn) [Example 56, 2-(Biphenyl-2-yl)propanamide] | 0 | 100 | 66.7 | 100 | – |
| NC(=O)C(F)c1ccccc1-c1cccc(F)c1 (stereo not drawn) [Example 160, 2-fluoro-2-(3′-fluorobiphenyl-2-yl)acetamide] | 33.3 | 66.7 | 100 | 66.7 | – |
| CNC(=O)Cc1ccccc1-c1ccc(Cl)cc1C(F)(F)F [Example 105] | – | 0 | 66.7 | – | – |
| NC(=O)Cc1ccccc1-c1ccc(Cl)c(F)c1 [Example 66] | – | 66.7 | 33.3 | – | – |
| CNC(=O)C(C)c1ccccc1-c1cccc(F)c1 (stereo not drawn) [Example 176] | – | 33.3 | 0 | – | – |
| CSc1cccc(-c2ccccc2CC(N)=O)c1 [Example 94] | – | – | 33.3 | – | – |
